Our source for the receptor activation values is PMC2099433, “The binding site for neohesperidin dihydrochalcone at the human sweet taste receptor” (BMC Structural Biology, 2007).

For this experiment, the target named is T1, rodent sweet taste receptor (Rattus norvegicus, UniProt Q923K1).
T1 construct: expressed in transfected cells; host or cells: HEK293T cells stably expressing G16Gust44
As to the kind of experiment: Calcium response, rodent sweet taste receptor. It counts as cell-based. The text has this:
In order to elucidate the putative binding site for NHDC, we cotransfected mixtures of plasmid DNAs for the rat and human TAS1R2 and TAS1R3 receptor subunits in HEK293T cells stably expressing the chimeric G-protein G16Gust44 and measured cellular calcium responses by fluorometry following bath application of various sweet tasting compounds.
Figure 1 Chemical structure and calcium responses elicited by neohesperidin dihydrochalcone. (A) Structure of neohesperidin dihydrochalcone. Numbers denote carbon atom positions. […]
The cDNAs for TAS1Rs tagged at the C-terminus with the herpes simplex virus glycoprotein D (HSV) were transiently transfected into HEK293T cells stably expressing the chimeric G-protein subunit G16Gust44 [44] using Lipofectamine 2000 (Invitrogen, Carlsbad, CA) according to the manufacturer's protocol. […] We monitored calcium mobilization following receptor stimulation with sweet tastants by an automated fluorometric imaging plate reader (FLIPR, Molecular Devices, Sunnyvale, CA). […] The obtained calcium signals were corrected for the response of mock transfected cells and normalized to the fluorescence of cells prior to the application of the stimulus using ΔF/F = (F-F0)/F0. Concentration-response curves and EC50 and IC50 values were calculated in SigmaPlot by nonlinear regression using the function f = ((a-d)/(1+(x/EC50)^nH)+d) and f = (a-b)/[1+(x/IC50)^nH]+b, respectively.

T1 sequence (Q923K1 21-858): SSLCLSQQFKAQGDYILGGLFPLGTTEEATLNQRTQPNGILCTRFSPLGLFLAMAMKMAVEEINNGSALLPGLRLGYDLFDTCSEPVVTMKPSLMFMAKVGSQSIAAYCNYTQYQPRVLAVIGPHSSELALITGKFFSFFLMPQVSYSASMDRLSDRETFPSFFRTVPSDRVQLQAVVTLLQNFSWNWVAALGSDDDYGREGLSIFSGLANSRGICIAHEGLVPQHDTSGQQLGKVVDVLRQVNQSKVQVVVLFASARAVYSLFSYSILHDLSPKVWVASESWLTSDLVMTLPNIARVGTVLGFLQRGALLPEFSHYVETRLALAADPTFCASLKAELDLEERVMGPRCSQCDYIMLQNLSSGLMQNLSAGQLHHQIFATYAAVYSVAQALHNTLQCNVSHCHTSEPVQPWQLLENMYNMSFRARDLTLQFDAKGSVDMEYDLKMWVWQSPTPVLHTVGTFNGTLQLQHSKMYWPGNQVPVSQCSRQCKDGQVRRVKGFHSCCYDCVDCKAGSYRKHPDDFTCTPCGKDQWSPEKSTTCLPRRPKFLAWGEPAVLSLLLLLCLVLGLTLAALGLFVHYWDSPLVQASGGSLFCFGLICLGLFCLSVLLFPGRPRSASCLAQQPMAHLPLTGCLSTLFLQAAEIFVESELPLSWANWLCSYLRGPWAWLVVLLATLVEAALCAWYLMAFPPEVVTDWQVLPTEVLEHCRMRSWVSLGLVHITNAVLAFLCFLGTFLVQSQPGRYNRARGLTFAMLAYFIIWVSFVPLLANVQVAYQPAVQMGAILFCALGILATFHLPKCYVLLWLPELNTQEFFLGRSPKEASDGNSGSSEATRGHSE
T1 sequence (Q9Z0R7 20-843 partner): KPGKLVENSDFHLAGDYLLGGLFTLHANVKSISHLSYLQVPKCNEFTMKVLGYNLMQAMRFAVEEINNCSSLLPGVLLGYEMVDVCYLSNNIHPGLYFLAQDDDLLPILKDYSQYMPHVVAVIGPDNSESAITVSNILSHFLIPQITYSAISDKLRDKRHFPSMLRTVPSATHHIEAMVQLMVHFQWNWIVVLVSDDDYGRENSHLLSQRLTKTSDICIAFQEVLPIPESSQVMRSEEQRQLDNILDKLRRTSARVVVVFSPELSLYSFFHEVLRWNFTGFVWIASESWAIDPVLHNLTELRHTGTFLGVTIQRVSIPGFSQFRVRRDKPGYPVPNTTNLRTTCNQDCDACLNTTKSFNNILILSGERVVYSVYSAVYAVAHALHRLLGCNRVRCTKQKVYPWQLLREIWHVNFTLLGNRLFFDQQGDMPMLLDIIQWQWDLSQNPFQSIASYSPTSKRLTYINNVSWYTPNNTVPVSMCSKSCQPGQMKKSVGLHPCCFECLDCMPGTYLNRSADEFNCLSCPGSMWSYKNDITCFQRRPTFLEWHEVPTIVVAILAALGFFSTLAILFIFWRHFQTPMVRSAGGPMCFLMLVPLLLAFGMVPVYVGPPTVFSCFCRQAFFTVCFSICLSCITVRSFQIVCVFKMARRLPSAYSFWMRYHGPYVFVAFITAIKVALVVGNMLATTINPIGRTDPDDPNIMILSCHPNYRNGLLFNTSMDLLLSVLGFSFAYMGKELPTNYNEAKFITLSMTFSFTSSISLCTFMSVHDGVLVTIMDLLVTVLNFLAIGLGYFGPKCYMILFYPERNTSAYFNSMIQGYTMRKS

Regarding `COc1ccc(CCC(=O)c2c(O)cc(O[C@@H]3O[C@H](CO)[C@@H](O)[C@H](O)[C@H]3O[C@@H]3O[C@@H](C)[C@H](O)[C@@H](O)[C@H]3O)cc2O)cc1O` [NHDC, neohesperidin dihydrochalcone], the receptor activation result is listed as “not the rodent sweet taste receptor”.
